Key:
Test in all cases: solid-phase competition binding assay with biotinylated EGF on coated receptor ECD/Fc
ErbB3 = molecular target: T1, ErbB3 (Homo sapiens, UniProt P21860)
T1 construct: ErbB3 ECD/Fc chimera; with EGF (biotinylated)

ErbB2 = molecular target: T2, ErbB2 (Homo sapiens, UniProt P04626)
T2 construct: ErbB2 ECD/Fc chimera; with EGF (biotinylated)

EGFR = molecular target: T3, EGFR (Homo sapiens, UniProt P00533)
T3 construct: human-EGFR ECD/Fc chimera; with EGF (biotinylated)
T3 sequence (P00533 25-645 limits assumed): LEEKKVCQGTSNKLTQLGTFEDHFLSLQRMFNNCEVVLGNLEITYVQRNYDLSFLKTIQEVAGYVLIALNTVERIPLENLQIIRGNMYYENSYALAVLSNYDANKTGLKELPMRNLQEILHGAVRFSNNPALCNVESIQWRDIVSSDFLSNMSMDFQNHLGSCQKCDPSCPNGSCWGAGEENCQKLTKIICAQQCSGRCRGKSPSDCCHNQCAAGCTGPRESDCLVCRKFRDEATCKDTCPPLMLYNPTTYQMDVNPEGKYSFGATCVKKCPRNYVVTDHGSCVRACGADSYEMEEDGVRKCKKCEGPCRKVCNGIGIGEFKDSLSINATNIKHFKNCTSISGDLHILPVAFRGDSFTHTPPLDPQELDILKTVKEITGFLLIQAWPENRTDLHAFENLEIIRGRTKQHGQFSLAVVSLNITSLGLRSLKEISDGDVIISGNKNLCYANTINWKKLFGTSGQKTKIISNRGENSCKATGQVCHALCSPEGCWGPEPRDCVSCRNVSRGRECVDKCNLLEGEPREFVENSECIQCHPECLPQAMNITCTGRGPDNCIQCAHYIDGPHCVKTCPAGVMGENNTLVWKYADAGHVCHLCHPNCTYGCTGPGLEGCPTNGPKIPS
T3 sequence (P01133 971-1023 partner): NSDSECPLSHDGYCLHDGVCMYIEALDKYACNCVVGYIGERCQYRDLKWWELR

T1 sequence (P21860 20-643 limits assumed): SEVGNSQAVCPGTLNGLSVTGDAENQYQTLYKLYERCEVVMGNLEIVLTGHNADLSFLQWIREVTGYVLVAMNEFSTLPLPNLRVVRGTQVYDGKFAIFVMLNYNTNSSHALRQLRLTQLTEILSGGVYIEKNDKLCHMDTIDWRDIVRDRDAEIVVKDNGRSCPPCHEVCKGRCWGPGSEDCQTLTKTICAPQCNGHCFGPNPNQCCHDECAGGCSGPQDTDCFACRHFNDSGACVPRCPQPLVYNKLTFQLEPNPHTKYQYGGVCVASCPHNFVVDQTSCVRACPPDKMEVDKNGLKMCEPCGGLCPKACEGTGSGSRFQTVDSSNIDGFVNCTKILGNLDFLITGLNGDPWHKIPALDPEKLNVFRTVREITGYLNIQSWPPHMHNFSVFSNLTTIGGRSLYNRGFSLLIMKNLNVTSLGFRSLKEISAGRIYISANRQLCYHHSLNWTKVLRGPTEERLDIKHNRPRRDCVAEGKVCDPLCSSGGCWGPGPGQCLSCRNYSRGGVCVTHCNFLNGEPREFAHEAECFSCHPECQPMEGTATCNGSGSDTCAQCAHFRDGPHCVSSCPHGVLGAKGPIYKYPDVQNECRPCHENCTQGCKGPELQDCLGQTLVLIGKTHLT
T1 sequence (P01133 971-1023 partner): as the sequence (P01133 971-1023 partner) above
T2 sequence (P04626 23-652): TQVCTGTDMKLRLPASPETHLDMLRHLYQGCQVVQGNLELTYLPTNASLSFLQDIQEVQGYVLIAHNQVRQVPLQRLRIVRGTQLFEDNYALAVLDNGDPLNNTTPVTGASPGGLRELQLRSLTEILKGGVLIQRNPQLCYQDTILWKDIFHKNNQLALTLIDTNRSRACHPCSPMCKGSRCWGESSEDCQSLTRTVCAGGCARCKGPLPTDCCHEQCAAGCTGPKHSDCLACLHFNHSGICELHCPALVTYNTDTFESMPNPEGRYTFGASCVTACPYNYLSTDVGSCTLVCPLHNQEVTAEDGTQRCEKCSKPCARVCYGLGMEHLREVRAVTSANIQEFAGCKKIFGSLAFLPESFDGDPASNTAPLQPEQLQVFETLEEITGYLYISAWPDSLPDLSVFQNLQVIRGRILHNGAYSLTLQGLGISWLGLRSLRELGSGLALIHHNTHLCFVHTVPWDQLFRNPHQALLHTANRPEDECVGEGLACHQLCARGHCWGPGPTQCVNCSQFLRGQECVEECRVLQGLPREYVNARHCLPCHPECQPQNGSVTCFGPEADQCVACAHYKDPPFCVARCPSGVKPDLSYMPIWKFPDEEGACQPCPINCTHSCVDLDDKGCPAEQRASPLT
T2 sequence (P01133 971-1023, further chain): as the sequence (P01133 971-1023 partner) above

SMILES: CC(C)(O)/C=C/C(=O)[C@](C)(O)[C@H]1[C@H](O)C[C@@]2(C)[C@@H]3CC=C4[C@@H](C[C@H](O)C(=O)C4(C)C)[C@]3(C)C(=O)C[C@]12C [CuD, cucurbitacin D]
- IC50 (ErbB3): 331 nM
- IC50 (ErbB2): 11.1 nM
- IC50 (EGFR): 4.33 nM
